“Also recorded” adds a separate entry of the source.

One experiment deals with Mcl-1. As to conditions: cited from earlier work.
Experiment [1] deals with PC9 cells. In words: Cell survival: cell number on coverslip counted in ImageJ. The format is cell-based, human. As to the method:
The cell survival was measured based on the cell number on the coverslip. […] The cells were stained with p-EGFR, and β-tubulin and three ROIs were imaged for each concentration at 40×. The cell number on each ROI was counted in ImageJ following the steps: import the Channel image, make binary, convert it to masks, analyze particles, and then choose “masks” under the “show” option.

In the next experiment the test system is p-EGFR (Tyr1086). The experiment can be described thus: p-EGFR immunofluorescence across four drug concentrations. In kind it is cell-based, human. As to conditions: PC9 cells, 48 hours. As to the method:
Following that, the cells were then fixed and permeabilized with 1.6% formaldehyde in 1×PBS for 10 minutes at RT and 0.5% Triton X-100 for 10 minutes at RT, respectively (FIG. 10A). The cells were then blocked using a cell staining medium (CSM) containing […]. […] PC9 cells were stained with p-EGFR and β-tubulin overnight followed by 1-hour incubation of secondary antibodies at RT, and 15 mins DAPI staining. The cells were then imaged at 40× magnification, and the cell number was analyzed using ImageJ. […] The coverslip was mounted to an acrylic holder for multiple cycles of staining.

For another experiment, the system named is HCC827 cells. The experiment can be described thus: PPI network motif frequency in HCC827 cells. In kind it is cell-based, human. From the text: Spatial Graph Construction: For each detected PPI in a cell, the corresponding 2D or 3D localization was extracted, and a node was assigned in the created graph. The node labels are assigned by creating a one-hot encoding of the corresponding PPI detected for the node. Delaunay triangulation was used to create edges connecting the nodes in the graph and therefore create a PPI spatial graph for each cell. The models are trained in a multi-instance learning framework, that is a cell label for each instance was assigned based on the cell treatment condition of a group.

Experiment [2] has as its system PC9 cells. As to conditions: 0 to 10 nM, 3-day treatment; cited from earlier work.
A further experiment deals with p-AKT(S473). The experiment can be described thus: RapMIF multiplexed immunofluorescence in PC9 cells, p-AKT. In kind it is cell-based, human. As to conditions: 40 nM, 48 hours vs control. From the text:
RapMIF: The RapMIF setup consisted of an autosampler that transferred antibodies and performed washes of the sample automatically and controlled by a custom-written python code (FIGS. 10A-10D). The buffers used during the procedure are 1×PBS (D8537, Sigma), CSM, and Fluorophore bleaching solution. PBS 1× was the wash buffer for the stabilization of the cells and the tubes. CSM was the imaging buffer that helped in the annealing of antibodies with the cells. Fluorophore bleaching solution was the strip buffer used to remove staining after each cycle. The walls on the 96-well plate for the antibodies were pre-washed with 1×PBS. The well plate was covered with foil stickers to ensure a dark condition. […] Once the cells were mounted and the antibodies and buffers were ready for transfer, automatic staining was done by running Python code. […]
Cell multiplexing: Each coverslip prepared with cells was stained with 25 markers using a total of 11-12 cycles (FIG. 10C). […] To quantify the frequencies belonging to the signal that disappears after bleaching, a Fourier analysis of before and after bleaching was performed to indicate the difference in frequencies belonging to the signal.
Image intensity: From nuclei and cytosol cell masks, the mean intensity of markers in each cell area was calculated. […]

The test system of the next experiment is AKT/mTOR pathways. The experiment can be described thus: RapMPI on HCC827 xenograft tissue. The format is in vivo, mouse. To be noted: 2-month vs 1-week treatment. From the text: (§1) Tissues: HCC827-derived mouse xenografts were provided by Dr. Sun Shi-yong (Emory University). […] Mice were then euthanized, and the tumor was embedded in OCT for sectioning. The OCT tissues were fixed in acetone, rehydrated, permeabilized in 0.4% Triton X-100, blocked, and ready for multiplexed experiments.
(§2) The staining settings were the same as the RapMPI in cell cultures. The blocking step between cycles for tissue multiplexing was skipped to avoid hiding the signals. The tissue samples were mounted with 10% glycerol made in 1×PBS and covered the slide using a 24×50 mm No. 1 coverslip (3322, Thermo Scientific) to prevent evaporation during imaging. To de-coverslip the sample after imaging, the slide was placed in a vertical jar containing 1×PBS for around 10 minutes, and the coverslip was released due to gravity.
(§3) To avoid loss of PPI information due to cell segmentation error, a nearest-distance-based assignment method was used to assign the PPI signal detected and not in any cell segmentation mask. For each PPI signal not in any segmented cell regions, the nearest cell mask pixel was observed and if the distance was lower than a user-defined value, it was assigned to the cell to which the nearest cell mask pixel belonged.

The test system of a further experiment is cyclin E/CDK2. The experiment can be described thus: RapMPI on HCC827 xenograft tissue. The format is in vivo, mouse. As to conditions: 1-week treatment (responders).
Excerpt: as §1, §2, §3

The next experiment deals with MEK/ERK signaling. In words: RapMPI on HCC827 xenograft tissue. The format is in vivo, mouse. As to conditions: 2-month vs 1-week treatment.
Excerpt: as §1, §2, §3

On to `C=CC(=O)Nc1cc(Nc2nccc(-c3cn(C)c4ccccc34)n2)c(OC)cc1N(C)CCN(C)C` [Osimertinib], for which, in the experiment on Mcl-1, the Mcl-1 level entry is “downregulates Mcl-1”. Also, the “cell viability, higher vs lower drug concentrations” value in the experiment on PC9 cells [1] (48-hour treatment) is “further decreased the cell viability”. Also, the “number of cells adhering to the coverslips” value in the experiment with PC9 cells [1] (48-hour treatment, 0, 20, 40, 60 nM) is given as “decreased as the drug concentration has increased; also recorded: reduced the number of adherent PC9 cells compared to untreated ones”. Also, the “p-EGFR expression, 60 nM vs 40 nM” value with p-EGFR (Tyr1086) is recorded as “relatively higher expression under 60 nM than 40 nM”. In addition, the p-EGFR expression entry with p-EGFR (Tyr1086) (0 to 20 nM to 40 nM, normalized to β-tubulin) was “decreased the p-EGFR expression as the drug concentration increased from 0 to 20 nM to 40 nM”. For the same molecule, in the experiment on HCC827 cells (5 PPI network), the “motif 9 (p-ERK/c-Myc & p-ERK/c-Myc) autoregulation” value is on record as “Increased autoregulation” and the “three-node motif 17 (Tead1/Yap&Tead1/Yap& p-ERK/c-Myc)” value was “more interactions”. Besides, in the experiment on HCC827 cells (9 PPIs dataset), the “autoregulation of cyclin D1/CDK2 in motif 0 and motif 45” value is recorded as “inhibited”; the “interaction between sox2/oct4 and Cyclin D1/CDK4 (motif 2, motif 47)” value was “downregulation”. Moreover, in the experiment on PC9 cells [2], the cell survival rate result is on record as “decreased as the concentration has increased from 0 to 10 nM; also recorded: decreased as the concentration was increased from 0 to 10-nM”. Further, the p-AKT expression result in the experiment with p-AKT(S473) is recorded as “consistently downregulated; also recorded: consistent downregulation”. Besides, the “AKT/mTOR pathways in pan-cytokeratin positive regions” value in the experiment on AKT/mTOR pathways is recorded as “downregulating”. Moreover, in the experiment on cyclin E/CDK2, the “cyclin E/CDK2 PPI in responders” value was “downregulation”. For the same molecule, in the experiment with MEK/ERK signaling, the “MEK/ERK signaling in pan-cytokeratin positive regions” value is “enhanced”.

The values above are taken from patent US20240060990A1, “SPATIAL SIGNALING NETWORKS FOR MULTIPLEXED DRUG RESPONSE MEASUREMENT AND MODELING” (Georgia Tech Research Corporation, priority 2022, published 2024).
